Source: patent US10597388B2, “Pyridazinone herbicides” (FMC CORPORATION, priority 2014, dated 2020)

Legend:
Assay type in all cases: in vivo
[1] = tested on: foxtail, giant (giant foxtail, Setaria faberii); test: Test A greenhouse herbicide test, pre- and postemergence
In short: (§1)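 Seeds sown in loam–sand blend got a preemergence directed soil spray of compound in non-phytotoxic solvent with surfactant. Postemergence treatment was given at 2–10 cm, one- to two-leaf stage. After ~10 d in greenhouse, injury was rated visually vs untreated controls, 0 (no effect) to 100 (complete control).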

[2] = tested on: ragweed (common ragweed, Ambrosia elatior); test: as above
In short: as §1

kochia (Kochia scoparia) = test: as above
In short: as §1

[3] = tested on: pigweed (Amaranthus retroflexus); test: as above
In short: as §1

[4] = tested on: barnyardgrass (Echinochloa crus-galli); test: as above
In short: as §1

[5] = tested on: ryegrass, Italian (Italian ryegrass, Lolium multiflorum); test: as above
In short: as §1

[6] = tested on: wheat (Triticum aestivum); test: as above; details: Postemergence
In short: as §1

[7] = tested on: blackgrass (Alopecurus myosuroides); test: Test A greenhouse herbicide test, postemergence
In short: (§2)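 Plants grown in loam soil/sand blend pots were treated postemergence at 2 to 10 cm height, one- to two-leaf stage, with formulated test chemicals. After approximately 10 d in a greenhouse, injury was rated visually against untreated controls on a 0 to 100 scale (0 no effect, 100 complete control).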

[8] = tested on: galium (catchweed bedstraw, Galium aparine); test: Test A greenhouse herbicide test, postemergence
In short: as §2

[9] = tested on: ryegrass, Italian (Italian ryegrass, Lolium multiflorum); test: Test C greenhouse herbicide test, pre- and postemergence
In short: (§3)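 Preemergence: seeds sown in a loam soil–sand blend and sprayed with test chemicals in a non-phytotoxic solvent mixture containing surfactant. Postemergence: plants grown in peat-based medium and treated at 2 to 18 cm (1- to 4-leaf stage). After 13 to 15 d in a greenhouse, injury was visually rated 0–100 against controls.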

corn (Zea mays) = test: as above
In short: as §3

[10] = Postemergence, 125 g ai/ha, 0 to 100 scale, 0 no effect, 100 complete control
[11] = Postemergence, 500 g ai/ha, visual rating after approx. 10 d, 0 to 100 scale (0 no effect, 100 complete control)
[12] = Preemergence, 125 g ai/ha, visual injury rating, 0 to 100 scale (0 no effect, 100 complete control), approx. 10 d
[13] = Preemergence, 500 g ai/ha, 0 to 100 scale where 0 is no effect and 100 is complete control
[14] = 125 g ai/ha, 0 to 100 scale, 0 no effect, 100 complete control
[15] = 500 g ai/ha, visual rating after approx. 10 d, 0 to 100 scale (0 no effect, 100 complete control)
[16] = Postemergence, 31 g ai/ha, scale 0 to 100 (0 no effect, 100 complete control)
[17] = Postemergence, 62 g ai/ha, 0 to 100 scale (0 no effect, 100 complete control)
[18] = Postemergence, 250 g ai/ha, scale 0 to 100, 0 is no effect, 100 is complete control
[19] = Preemergence, 31 g ai/ha, scale 0 to 100, 0 is no effect, 100 is complete control
[20] = Preemergence, 62 g ai/ha, scale 0 to 100, 0 is no effect, 100 is complete control
[21] = Preemergence, 125 g ai/ha, scale 0 to 100, 0 is no effect, 100 is complete control
[22] = postemergence, 125 g ai/ha, scale 0 to 100, 0 no effect, 100 complete control

CSCC(=O)Oc1c(C)nn(C)c(=O)c1-c1cccc2ccccc12 [Compound 171]
Plant response rating, Foxtail, Giant [1, 10]: 40
Plant response rating, Foxtail, Giant [1, 11]: 90
Plant response rating, Foxtail, Giant [1, 12]: 50
Plant response rating, Foxtail, Giant [1, 13]: 100
Plant response rating, Ragweed [2, 10]: 100
Plant response rating, Ragweed [2, 11]: 100
Plant response rating, Ragweed [2, 12]: 70
Plant response rating, Ragweed [2, 13]: 90
Plant response rating, Kochia (kochia (Kochia scoparia); [10]): 100
Plant response rating, Kochia (kochia (Kochia scoparia); [11]): 100
Plant response rating, Kochia (kochia (Kochia scoparia); [12]): 100
Plant response rating, Kochia (kochia (Kochia scoparia); [13]): 100
Plant response rating, Pigweed [3, 10]: 90
Plant response rating, Pigweed [3, 11]: 100
Plant response rating, Pigweed [3, 12]: 90
Plant response rating, Pigweed [3, 13]: 100
Plant response rating, Barnyardgrass [4, 10]: 40
Plant response rating, Barnyardgrass [4, 11]: 90
Plant response rating, Barnyardgrass [4, 12]: 70
Plant response rating, Barnyardgrass [4, 13]: 100
Plant response rating, Ryegrass, Italian [5, 10]: 100
Plant response rating, Ryegrass, Italian [5, 11]: 100
Plant response rating, Ryegrass, Italian [5, 12]: 100
Plant response rating, Ryegrass, Italian [5, 13]: 100
Plant response rating, Wheat [6, 14]: 30
Plant response rating, Wheat [6, 15]: 70
Plant response rating, Blackgrass [7, 14]: 80
Plant response rating, Blackgrass [7, 15]: 90
Plant response rating, Galium [8, 14]: 90
Plant response rating, Galium [8, 15]: 100
Plant response rating, Ryegrass, Italian [9, 16]: 90
Ryegrass, Italian plant response rating [9, 17]: 95
Plant response rating, Ryegrass, Italian [9, 18]: 95
Plant response rating, Ryegrass, Italian [9, 19]: 90
Plant response rating, Ryegrass, Italian [9, 20]: 95
Plant response rating, Ryegrass, Italian [9, 21]: 95
Ryegrass, Italian plant response rating [9, 22]: 95
Plant response rating, Corn (corn (Zea mays); [16]): 0
Corn plant response rating (corn (Zea mays); [17]): 0
Plant response rating, Corn (corn (Zea mays); [18]): 20
Plant response rating, Corn (corn (Zea mays); [19]): 0
Plant response rating, Corn (corn (Zea mays); [20]): 0
Plant response rating, Corn (corn (Zea mays); [21]): 0
Corn plant response rating (corn (Zea mays); Preemergence, 250 g ai/ha, scale 0 to 100 (0 no effect, 100 complete control)): 40
Corn plant response rating (corn (Zea mays); [22]): 10

Cc1ccc2ccccc2c1-c1c(OC(=O)N2CCOCC2)c(Br)nn(C)c1=O [Compound 176]
Plant response rating, Foxtail, Giant [1, 10]: 0
Plant response rating, Foxtail, Giant [1, 11]: 10
Plant response rating, Foxtail, Giant [1, 12]: 0
Plant response rating, Foxtail, Giant [1, 13]: 10
Plant response rating, Ragweed [2, 10]: 40
Plant response rating, Ragweed [2, 11]: 100
Plant response rating, Ragweed [2, 12]: 20
Plant response rating, Ragweed [2, 13]: 70
Plant response rating, Kochia (kochia (Kochia scoparia); [10]): 30
Plant response rating, Kochia (kochia (Kochia scoparia); [11]): 70
Plant response rating, Kochia (kochia (Kochia scoparia); [12]): 0
Plant response rating, Kochia (kochia (Kochia scoparia); [13]): 20
Plant response rating, Pigweed [3, 10]: 30
Plant response rating, Pigweed [3, 11]: 90
Plant response rating, Pigweed [3, 12]: 0
Plant response rating, Pigweed [3, 13]: 90
Plant response rating, Barnyardgrass [4, 10]: 0
Plant response rating, Barnyardgrass [4, 11]: 10
Plant response rating, Barnyardgrass [4, 12]: 0
Plant response rating, Barnyardgrass [4, 13]: 10
Plant response rating, Ryegrass, Italian [5, 10]: 30
Plant response rating, Ryegrass, Italian [5, 11]: 100
Plant response rating, Ryegrass, Italian [5, 12]: 0
Plant response rating, Ryegrass, Italian [5, 13]: 90
Plant response rating, Wheat [6, 14]: 0
Plant response rating, Wheat [6, 15]: 0
Plant response rating, Blackgrass [7, 14]: 30
Plant response rating, Blackgrass [7, 15]: 30
Plant response rating, Galium [8, 14]: 90
Plant response rating, Galium [8, 15]: 100
Plant response rating, Ryegrass, Italian [9, 16]: 0
Ryegrass, Italian plant response rating [9, 17]: 0
Plant response rating, Ryegrass, Italian [9, 18]: 10
Ryegrass, Italian plant response rating [9, 22]: 0
Plant response rating, Corn (corn (Zea mays); [16]): 0
Corn plant response rating (corn (Zea mays); [17]): 10
Plant response rating, Corn (corn (Zea mays); [18]): 5
Corn plant response rating (corn (Zea mays); [22]): 0
